Reference: patent publication US11096961B2, “Pharmaceutical composition for suppressing spinal cord ischemic disorder” (SUMITOMO SEIKA CHEMICALS CO., LTD., priority 2019, dated 2021)

Legend:
[1] = system: mouse transient spinal cord ischemia model; test: Measurement of spinal cord blood flow (SCBF) after release of blood flow interception; format: in vivo; conditions: inhalation of 5% carbon dioxide gas from cannulation until end of model creation; SCBF before interception = 100%; measured for 480 seconds after release of interception; compared with 100% oxygen control; FIG. 1
Source text: (§1) An 8 to 12-week-old male mouse was used for creating a mouse transient spinal cord ischemia model. The mouse was subjected to endotracheal intubation under anesthesia by the inhalation of isoflurane and cannulation for measuring blood pressure in the left femoral artery. The cervix and a part of the sternum were incised, and the left common carotid artery, the aortic arch, and the left subclavian artery were exposed. The blood flow was intercepted at the aortic arch and the left subclavian artery base using two vascular clips. The vascular clips were removed 4 minutes and 30 seconds after the blood flow interception, and the blood flow interception was released. […]
(§2) The inhalation of 5% carbon dioxide gas was started from the cannulation in the process of creating the mouse transient spine ischemia model, and the inhalation was continued until the end of the model creation. […] The spinal cord blood flow (SCBF) before the blood flow interception was defined as 100%, and the spinal cord blood flow was measured for 480 seconds after the blood flow interception was released. A known method (Basso et al., J Nurotrauma, 23(5): 635-59, 2006) was partially modified, and the motor functions were continuously evaluated by the Basso Mouse Scale (BMS) 24, 48 and 72 hours after spinal cord ischemia. […]

[2] = system: mouse transient spinal cord ischemia model; test: Evaluation of motor function by Basso Mouse Scale (BMS) after spinal cord ischemia; format: in vivo; conditions: inhalation of 5% carbon dioxide gas, compared with 100% oxygen controls, FIGS. 2A-2B
Source text: as §1, §2

O=C=O [5% carbon dioxide gas, carbon dioxide]
spinal cord blood flow (SCBF) in the ischemic state [1]: improved more rapidly
decreases in the motor functions (Basso Mouse Scale) ([2]; BMS 24, 48 and 72 hours after spinal cord ischemia): hardly observed
onset of late-onset paraplegia ([2]; BMS=0 to 5 is paraplegia or death, 24, 48 and 72 hours after ischemia): suppressed remarkably
